Results taken from US20260317324A1, “BIFUNCTIONAL COMPOUNDS FOR DEGRADING BRAF VIA UBIQUITIN PROTEOSOME PATHWAY” (Nurix Therapeutics, Inc., priority 2023, published 2026).

Columns and labels:
Type in all cases: cell-based
[1] = target: T1, BRAF G469A (Homo sapiens, UniProt P15056, G469A); assay: BRAF HiBiT degradation assay, C-terminal HiBiT-tagged BRAF G469A overexpressed in HCT-116 BRAF−/− cells (clone 34), Nano-Glo HiBiT Lytic assay
T1 construct: Horizon Discovery (HCT-116 BRAF−/− cells); host or cells: HCT-116 BRAF−/− cells, clone 34, lentiviral transduction
Outline: (§1)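 We quantified degradation of the C-terminally HiBiT-tagged, overexpressed mutant by lytic luminescence, normalizing to DMSO-treated cells with wild-type HCT-116 background subtracted. Dose series ran from 1 μM to 0.01 nM at 0.2% DMSO. Observed Dmax is % degraded at maximal effect.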

[2] = target: T2, BRAF V600E (Homo sapiens, UniProt P15056, V600E); assay: BRAF HiBiT degradation assay, C-terminal HiBiT-tagged BRAF V600E A375 cells (clone 1F10), Nano-Glo HiBiT Lytic assay; conditions: for Dmax: A-375
T2 construct: endogenous C-terminal HiBiT fusion tag on BRAF V600E allele; endogenous in cells; host or cells: A375 clone 1F10 (CRISPR-Cas9 knock-in of the HiBiT tag; parental A375 from ATCC)
Outline: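 Steps: seed HiBiT-tagged A375 clone 1F10 cells; incubate 24 h, 37 °C, 5% CO2; add compound (11 half-log points from 1 μM, 0.2% DMSO); lyse with HiBiT detection reagent plus LgBiT for 10 min; read luminescence; fit % protein remaining against concentration.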

[3] = target: T3, BRAF D594G (Homo sapiens, UniProt P15056, D594G); assay: BRAF HiBiT degradation assay, C-terminal HiBiT-tagged BRAF D594G overexpressed in HCT-116 BRAF−/− cells (clone 63), Nano-Glo HiBiT Lytic assay
T3 construct: Horizon Discovery (HCT-116 BRAF−/− cells); host or cells: HCT-116 BRAF−/− cells, clone 63, lentiviral transduction
Outline: as §1

[4] = target: T4, BRAF G466V (Homo sapiens, UniProt P15056, G466V); assay: BRAF HiBiT degradation assay, C-terminal HiBiT-tagged BRAF G466V overexpressed in HCT-116 BRAF−/− cells (clone 8), Nano-Glo HiBiT Lytic assay
T4 construct: Horizon Discovery (HCT-116 BRAF−/− cells); host or cells: HCT-116 BRAF−/− cells, clone 8, lentiviral transduction
Outline: as §1

[5] = BRAF G469A (Class 2), HCT-116 BRAF−/− cells, DC50 at 50% degradation
[6] = BRAF G469A (Class 2), HCT-116 BRAF−/− cells, observed Dmax relative to DMSO control
[7] = A375 (BRAF V600E, Class 1), DC50 at 50% degradation
[8] = A375 (BRAF V600E, Class 1), observed Dmax, % protein degraded relative to DMSO control
[9] = BRAF D594G (Class 3), HCT-116 BRAF−/− cells, DC50 at 50% degradation
[10] = BRAF D594G (Class 3), HCT-116 BRAF−/− cells, observed Dmax relative to DMSO control
[11] = BRAF G466V (Class 3), HCT-116 BRAF−/− cells, DC50 at 50% degradation
[12] = BRAF G466V (Class 3), HCT-116 BRAF−/− cells, observed Dmax relative to DMSO control
[13] = Class 2, BRAF G469A, DC50 at 50%: fitted conc. at Y=50
[14] = HCT-116, Class 2, BRAF G469A, percentage protein degraded at maximal compound effect relative to DMSO
[15] = A375 (BRAF V600E), DC50 at 50%: fitted conc. at Y=50
[16] = A375 (BRAF V600E), percentage protein degraded at maximal compound effect relative to DMSO
[17] = BRAF D594G, DC50 at 50%: fitted conc. at Y=50
[18] = HCT-116, BRAF D594G, percentage protein degraded at maximal compound effect relative to DMSO
[19] = BRAF G466V, DC50 at 50%: fitted conc. at Y=50
[20] = HCT-116, BRAF G466V, percentage protein degraded at maximal compound effect relative to DMSO

T1 sequence (P15056 whole entry G469A): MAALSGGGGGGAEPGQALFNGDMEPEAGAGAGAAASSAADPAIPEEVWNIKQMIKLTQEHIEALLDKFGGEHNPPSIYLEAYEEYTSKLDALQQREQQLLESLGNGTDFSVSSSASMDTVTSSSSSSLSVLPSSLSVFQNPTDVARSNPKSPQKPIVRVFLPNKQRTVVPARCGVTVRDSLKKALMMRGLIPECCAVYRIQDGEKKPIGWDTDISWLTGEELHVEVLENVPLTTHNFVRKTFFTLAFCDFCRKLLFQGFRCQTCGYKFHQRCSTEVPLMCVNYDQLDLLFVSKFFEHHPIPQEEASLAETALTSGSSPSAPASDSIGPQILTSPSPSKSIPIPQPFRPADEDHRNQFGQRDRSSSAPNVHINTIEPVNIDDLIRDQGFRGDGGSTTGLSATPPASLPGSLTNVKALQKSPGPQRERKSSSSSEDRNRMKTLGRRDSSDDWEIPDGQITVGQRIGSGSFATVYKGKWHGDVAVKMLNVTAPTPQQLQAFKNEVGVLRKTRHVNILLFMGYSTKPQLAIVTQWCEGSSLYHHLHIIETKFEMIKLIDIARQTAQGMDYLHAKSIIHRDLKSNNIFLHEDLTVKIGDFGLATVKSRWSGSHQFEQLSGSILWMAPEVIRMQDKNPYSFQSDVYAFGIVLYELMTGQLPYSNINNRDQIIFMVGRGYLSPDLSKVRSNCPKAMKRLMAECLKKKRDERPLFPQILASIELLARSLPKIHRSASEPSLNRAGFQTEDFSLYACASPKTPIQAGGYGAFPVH
T4 sequence (P15056 whole entry G466V): as the sequence (P15056 whole entry G469A) above, with G466V, A469G counted along it
T2 sequence (P15056 whole entry V600E, the tested form may be a part): as the sequence (P15056 whole entry G469A) above, with A469G, V600E counted along it
T3 sequence (P15056 whole entry D594G): as the sequence (P15056 whole entry G469A) above, with A469G, D594G counted along it

For `O=C1CCN(c2ccc(N3CCC(CN4CCN(c5ccc(-n6cc(-c7cc(Cl)cc(NS(=O)(=O)N8CC(F)C8)c7F)c(-c7ccncc7)n6)c(F)c5)CC4)CC3)nc2)C(=O)N1` [Compound 369, N-[5-chloro-3-(1-{4-[4-({1-[5-(2,4-dioxo-1,3-diazinan-1-yl)pyridin-2-yl]piperidin-4-yl}methyl)piperazin-1-yl]-2-fluorophenyl}-3-(pyridin-4-yl)-1H-pyrazol-4-yl)-2-fluorophenyl]-3-fluoroazetidine-1-sulfonamide], the DC50 [1, 5] was under 10 nM, the Dmax [1, 6] was 30 to 70% and the DC50 [2, 7] was under 10 nM. It also gave a Dmax [2, 8] of over 70%, a DC50 [3, 9] of under 10 nM and a Dmax [3, 10] of 30 to 70%. The DC50 [4, 11] was 10 to 50 nM and the Dmax [4, 12] was 30 to 70%.

For `O=C1CCC(c2ccc(N3CCC(CN4CCN(c5ccc(-n6cc(-c7cc(Cl)cc(NS(=O)(=O)N8CC[C@@H](F)C8)c7F)c(-c7ccncc7)n6)nc5)CC4)CC3)nc2)C(=O)N1` (mixture of isomers) [Compound 296, (3R)—N-{5-chloro-3-[1-(5-{4-[(1-{5-[(3RS)-2,6-dioxopiperidin-3-yl]pyridin-2-yl}piperidin-4-yl)methyl]piperazin-1-yl}pyridin-2-yl)-3-(pyridin-4-yl)-1H-pyrazol-4-yl]-2-fluorophenyl}-3-fluoropyrrolidine-1-sulfonamide], the DC50 [1, 5] was under 10 nM, the Dmax [1, 6] was over 70% and the DC50 [2, 7] was under 10 nM. It also gave a Dmax [2, 8] of over 70%, a DC50 [3, 9] of under 10 nM and a Dmax [3, 10] of over 70%. For the same compound, the DC50 [4, 11] was under 10 nM and the Dmax [4, 12] was over 70%.

In the case of `O=C1CCC(c2ccc(N3CCC(CN4CCN(c5ccc(-n6cc(-c7cc(C(F)F)cc(NS(=O)(=O)N8CCCC8)c7F)c(-c7ccncc7)n6)cc5)CC4)CC3)nc2)C(=O)N1` (racemic) [Compound 350, Rac-N-[5-(difluoromethyl)-3-[1-(4-{4-[(1-{5-[(3R)-2,6-dioxopiperidin-3-yl]pyridin-2-yl}piperidin-4-yl)methyl]piperazin-1-yl}phenyl)-3-(pyridin-4-yl)-1H-pyrazol-4-yl]-2-fluorophenyl]pyrrolidine-1-sulfonamide], the DC50 [1, 5] is reported as under 10 nM, the Dmax [1, 6] is reported as over 70% and the DC50 [2, 7] is reported as under 10 nM. It also gave a Dmax [2, 8] of over 70%, a DC50 [3, 9] of under 10 nM and a Dmax [3, 10] of over 70%. For the same compound, the DC50 [4, 11] was under 10 nM and the Dmax [4, 12] was over 70%.

Work on `CCCS(=O)(=O)Nc1cccc(-c2nc(C3CCN(C(=O)C4CCN(C(=O)C5CCN(c6ccc(C7CCC(=O)NC7=O)cn6)CC5)CC4)CC3)sc2-c2ccnc(N[C@H](C)CO)n2)c1F` (mixture of isomers) [Compound 180, N-[3-(2-{1-[1-(1-{5-[(3RS)-2,6-dioxopiperidin-3-yl]pyridin-2-yl}piperidine-4-carbonyl)piperidine-4-carbonyl]piperidin-4-yl}-5-(2-{[(2R)-1-hydroxypropan-2-yl]amino}pyrimidin-4-yl)-1,3-thiazol-4-yl)-2-fluorophenyl]propane-1-sulfonamide] yielded a DC50 [1, 13] of 10 to 50 nM, a Dmax [1, 14] of 30 to 70% and a DC50 [2, 15] of under 10 nM. It also gave a Dmax [2, 16] of over 70%, a DC50 [3, 17] of under 10 nM and a Dmax [3, 18] of 30 to 70%. For the same compound, the DC50 [4, 19] was under 10 nM and the Dmax [4, 20] was 30 to 70%.

With `CCCS(=O)(=O)Nc1cccc(-c2nc(C3CCN(C(=O)C4(C)CCN(C(=O)CC5CCN(c6ccc(C7CCC(=O)NC7=O)cn6)CC5)CC4)CC3)sc2-c2ccnc(N)n2)c1F` (racemic) [Compound 194, Rac-N-{3-[5-(2-aminopyrimidin-4-yl)-2-(1-{1-[2-(1-{5-[(3R)-2,6-dioxopiperidin-3-yl]pyridin-2-yl}piperidin-4-yl)acetyl]-4-methylpiperidine-4-carbonyl}piperidin-4-yl)-1,3-thiazol-4-yl]-2-fluorophenyl}propane-1-sulfonamide] the DC50 [1, 13] was over 500 nM, the Dmax [1, 14] was under 30% and the DC50 [2, 15] was under 10 nM. It also gave a Dmax [2, 16] of over 70%, a DC50 [3, 17] of over 500 nM and a Dmax [3, 18] of 30 to 70%. The DC50 [4, 19] was over 500 nM and the Dmax [4, 20] was 30 to 70%.
